Measurements: patent US11464770B2, “Anticancer pharmaceutical composition” (NATIONAL CANCER CENTER, priority 2016, dated 2022)
Read-outs that look alike come from different tables or passages of the source.

Tests used:
[1] = system: pancreatic cancer cell lines (e.g. MIA PaCa-2); assay: Cell based assay, cell viability (CellTiter-Glo), pancreatic cancer cell lines; details: Homo sapiens
Outline: (§1)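 72-hour continuous compound exposure, 0 to 2 μM final, begun one day after seeding; endpoint is ATP-based luminescent viability.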

[2] = system: lung cancer cell lines (e.g. NCI-H23, NCI-H1229); assay: Cell based assay, cell viability (CellTiter-Glo), lung cancer cell lines; details: Homo sapiens, 72 hours treatment, CellTiter-Glo
Outline: as §1

[3] = system: bladder cancer cell lines; assay: Cell based assay, cell viability (CellTiter-Glo), bladder cancer cell lines; details: 72 hours treatment, 0 to 2 μM, CellTiter-Glo
Outline: as §1

[4] = pancreatic cancer cell line AsPC-1, 72 hours, read-out: IC50, AsPC-1
[5] = pancreatic cancer cell line BxPC-3, 72 hours, read-out: IC50, BxPC-3
[6] = pancreatic cancer cell line CFPAC-1, 72 hours, read-out: IC50, CFPAC-1
[7] = pancreatic cancer cell line Capan-1, 72 hours, read-out: IC50, Capan-1
[8] = pancreatic cancer cell line Capan-2, 72 hours, read-out: IC50, Capan-2
[9] = pancreatic cancer cell line MIA PaCa-2, 72 hours, read-out: IC50, MIA PaCa-2
[10] = pancreatic cancer cell line PANC-1, 72 hours, read-out: IC50, PANC-1
[11] = A549 cells, read-out: IC50, lung cancer cell line A549
[12] = DMS 114 cells, read-out: IC50, lung cancer cell line DMS 114
[13] = NCI-H23 cells, read-out: IC50, lung cancer cell line NCI-H23
[14] = NCI-H460 cells, read-out: IC50, lung cancer cell line NCI-H460
[15] = NCI-H522 cells, read-out: IC50, lung cancer cell line NCI-H522
[16] = NCI-H1299 cells, read-out: IC50, lung cancer cell line NCI-H1299
[17] = NCI-H1437 cells, read-out: IC50, lung cancer cell line NCI-H1437
[18] = 5637 cells, read-out: IC50, bladder cancer cell line 5637
[19] = Homo sapiens, T-24, T24 cells, read-out: IC50, bladder cancer cell line T24
[20] = Homo sapiens, J82 cells, read-out: IC50, bladder cancer cell line J82

IC50 [1, 4]	IC50 [1, 5]	IC50 [1, 6]	IC50 [1, 7]	IC50 [1, 8]	IC50 [1, 9]	IC50 [1, 10]	IC50 [2, 11]	IC50 [2, 12]	IC50 [2, 13]	IC50 [2, 14]	IC50 [2, 15]	IC50 [2, 16]	IC50 [2, 17]	IC50 [3, 18]	IC50 [3, 19]	IC50 [3, 20]	IC50 ([3]; Homo sapiens, KU-19-19 cells, read-out: IC50, bladder cancer cell line KU-19-19)	Compound	IC50 ([2]; MRC-5 cells, read-out: IC50)
> 2000 nM	> 2000 nM	> 10000 nM	> 2000 nM	> 2000 nM	1990 nM	> 2000 nM	> 2000 nM	> 2000 nM	1390 nM	> 2000 nM	> 2000 nM	2000 nM	> 10000 nM	> 2000 nM	> 2000 nM	> 2000 nM		CC(=O)c1c(S(=O)(=O)Cc2ccccc2)[nH]c2c(Br)ccc(Cl)c2c1=O [Compound 34, 3-acetyl-2-(benzylsulfonyl)-8-bromo-5-chloroquinolin-4(1H)-one]	> 2000 nM
> 2000 nM	> 2000 nM	> 10000 nM	> 2000 nM	> 2000 nM	1230 nM	> 2000 nM	1870 nM	> 2000 nM	960 nM	1750 nM	> 2000 nM	1280 nM	> 10000 nM	1350 nM	920 nM	2070 nM		CC(=O)c1c([S+]([O-])Cc2cc(Cl)ccc2Cl)[nH]c2c(Br)ccc(Cl)c2c1=O (centres unmarked) [Compound 44, 3-acetyl-8-bromo-5-chloro-2-((2,5-dichlorobenzyl)sulfinyl)quinolin-4(1H)-one]	960 nM
> 2000 nM	> 2000 nM	> 10000 nM	> 2000 nM	> 2000 nM	760 nM	> 2000 nM	> 2000 nM	> 2000 nM	770 nM	1620 nM	1730 nM		> 10000 nM	1070 nM	890 nM	> 2000 nM		CC(=O)c1c([S+]([O-])Cc2cc(C)on2)[nH]c2c(Br)ccc(Cl)c2c1=O (centres unmarked) [Compound 51, 3-acetyl-8-bromo-5-chloro-2-(((5-methylisoxazol-3-yl)methyl)sulfinyl)quinolin-4(1H)-one]	580 nM
> 2000 nM	> 2000 nM	> 10000 nM	> 2000 nM	> 2000 nM	1690 nM	> 2000 nM	> 2000 nM	> 2000 nM	1280 nM	> 2000 nM	> 2000 nM	> 2000 nM	> 10000 nM	> 2000 nM	1540 nM	> 2000 nM		COc1cccc(C[S+]([O-])c2[nH]c3c(Br)ccc(Cl)c3c(=O)c2C(C)=O)c1 (centres unmarked) [Compound 55, 3-acetyl-8-bromo-5-chloro-2-((3-methoxybenzyl)sulfinyl)quinolin-4(1H)-one]	> 2000 nM
> 2000 nM	> 2000 nM	> 10000 nM	> 2000 nM	> 2000 nM	> 2000 nM	> 2000 nM	> 2000 nM	> 2000 nM	1830 nM	> 2000 nM	> 2000 nM	> 2000 nM	> 10000 nM	> 2000 nM	1790 nM	> 2000 nM		CC(=O)c1c([S+]([O-])Cc2ccc([N+](=O)[O-])cc2)[nH]c2c(Cl)ccc(Cl)c2c1=O (centres unmarked) [Compound 57, 3-acetyl-5,8-dichloro-2-((4-nitrobenzyl)sulfinyl)quinolin-4(1H)-one]	> 2000 nM
> 2000 nM	> 2000 nM	> 10000 nM	> 2000 nM	> 2000 nM	1220 nM	> 2000 nM	> 2000 nM	> 2000 nM	980 nM	> 2000 nM	> 2000 nM	1350 nM	> 10000 nM	1520 nM	1040 nM	1960 nM		CC(=O)c1c([S+]([O-])Cc2ccc([S+]([O-])C(F)(F)F)cc2)[nH]c2c(Br)ccc(Cl)c2c1=O (centres unmarked) [Compound 64, 3-acetyl-8-bromo-5-chloro-2-((4-((trifluoromethyl)sulfinyl)benzyl)sulfinyl)quinolin-4(1H)-one]	> 2000 nM
> 2000 nM	> 2000 nM	> 10000 nM	> 2000 nM	> 2000 nM	1650 nM	> 2000 nM	1790 nM	> 2000 nM	1460 nM	> 2000 nM	> 2000 nM	1640 nM	> 10000 nM	1510 nM	1390 nM	1980 nM		CC(=O)c1c([S+]([O-])Cc2ccc(OC(F)(F)F)cc2)[nH]c2c(Br)ccc(Cl)c2c1=O (centres unmarked) [Compound 71, 3-acetyl-8-bromo-5-chloro-2-((4-(trifluoromethoxy)benzyl)sulfinyl)quinolin-4(1H)-one]	> 2000 nM

Second part, the compound before the results:

Compound	IC50 [1, 4]	IC50 [1, 5]	IC50 [1, 6]	IC50 [1, 7]	IC50 [1, 8]	IC50 [1, 9]	IC50 [1, 10]	IC50 [2, 11]	IC50 [2, 12]	IC50 [2, 13]	IC50 [2, 14]	IC50 [2, 15]	IC50 [2, 16]	IC50 [2, 17]	IC50 [3, 18]	IC50 [3, 19]	IC50 [3, 20]	IC50 ([3]; Homo sapiens, KU-19-19 cells, read-out: IC50, bladder cancer cell line KU-19-19)	IC50 ([2]; MRC-5 cells, read-out: IC50)
CC(=O)c1c([S+]([O-])Cc2ccc(F)cc2F)[nH]c2c(Br)ccc(Cl)c2c1=O (centres unmarked) [Compound 29, 3-acetyl-8-bromo-5-chloro-2-((2,4-difluorobenzyl)sulfinyl)quinolin-4(1H)-one]	> 2000 nM	> 2000 nM	> 10000 nM	> 2000 nM	> 2000 nM	1190 nM	> 2000 nM	> 2000 nM	> 2000 nM	910 nM	1770 nM	> 2000 nM	1420 nM	> 10000 nM	1330 nM	1090 nM	> 2000 nM		> 2000 nM
CC(=O)c1c([S+]([O-])Cc2ccc(F)c(Cl)c2)[nH]c2c(Br)ccc(Cl)c2c1=O (centres unmarked) [Compound 31, 3-acetyl-8-bromo-5-chloro-2-((3-chloro-4-fluorobenzyl)sulfinyl)quinolin-4(1H)-one]	> 2000 nM	> 2000 nM	> 10000 nM	> 2000 nM	> 2000 nM	1180 nM	> 2000 nM	1720 nM	> 2000 nM	810 nM	1420 nM	> 2000 nM	1220 nM	> 10000 nM	1230 nM	1120 nM	1380 nM		> 2000 nM
CC(=O)c1c([S+]([O-])Cc2ccc([N+](=O)[O-])cc2)[nH]c2c(Br)ccc(Cl)c2c1=O (centres unmarked) [Compound 33, 3-acetyl-8-bromo-5-chloro-2-((4-nitrobenzyl)sulfinyl)quinolin-4(1H)-one]	> 2000 nM	> 2000 nM	> 10000 nM	> 2000 nM	> 2000 nM	1040 nM	> 2000 nM	> 2000 nM	> 2000 nM	860 nM	1780 nM	> 2000 nM	1380 nM	> 10000 nM	> 2000 nM	1030 nM	> 2000 nM		820 nM
CC(=O)c1c([S+]([O-])Cc2cc(F)cc(F)c2)[nH]c2c(Br)ccc(Cl)c2c1=O (centres unmarked) [Compound 46, 3-acetyl-8-bromo-5-chloro-2-((3,5-difluorobenzyl)sulfinyl)quinolin-4(1H)-one]	> 2000 nM	> 2000 nM	> 10000 nM	> 2000 nM	> 2000 nM	1570 nM	> 2000 nM	> 2000 nM	> 2000 nM	1270 nM	> 2000 nM	> 2000 nM	1870 nM	> 10000 nM	1770 nM	1570 nM	> 2000 nM		> 2000 nM
CC(=O)c1c([S+]([O-])Cc2cccc(F)c2)[nH]c2c(Br)ccc(Cl)c2c1=O (centres unmarked) [Compound 50, 3-acetyl-8-bromo-5-chloro-2-((3-fluorobenzyl)sulfinyl)quinolin-4(1H)-one]	> 2000 nM	> 2000 nM	> 10000 nM	> 2000 nM	> 2000 nM	1450 nM	> 2000 nM	> 2000 nM	> 2000 nM	1140 nM	> 2000 nM	> 2000 nM	1940 nM	> 10000 nM	1470 nM		> 2000 nM		> 2000 nM
CC(=O)c1c([S+]([O-])Cc2ccc(SC(F)(F)F)cc2)[nH]c2c(Br)ccc(Cl)c2c1=O (centres unmarked) [Compound 56, 3-acetyl-8-bromo-5-chloro-2-((4-((trifluoromethyl)thio)benzyl)sulfinyl)quinolin-4(1H)-one]	> 2000 nM	> 2000 nM	> 10000 nM	> 2000 nM	> 2000 nM	1370 nM	> 2000 nM	1700 nM	> 2000 nM	1040 nM	1900 nM	> 2000 nM	> 2000 nM	> 10000 nM	> 2000 nM	980 nM	1460 nM	900 nM	1240 nM
COc1cc(C[S+]([O-])c2[nH]c3c(Br)ccc(Cl)c3c(=O)c2C(C)=O)cc(OC)c1 (centres unmarked) [Compound 59, 3-acetyl-8-bromo-5-chloro-2-((3,5-dimethoxybenzyl)sulfinyl)quinolin-4(1H)-one]	> 2000 nM	> 2000 nM	> 10000 nM	> 2000 nM	> 2000 nM	1380 nM	> 2000 nM	> 2000 nM	> 2000 nM	920 nM	1810 nM	> 2000 nM	1450 nM	> 10000 nM	> 2000 nM	1110 nM	> 2000 nM		1030 nM
CC(=O)c1c([S+]([O-])Cc2ccc(C(C)(C)C)cc2)[nH]c2c(Br)ccc(Cl)c2c1=O (centres unmarked) [Compound 60, 3-acetyl-8-bromo-2-((4-(tert-butyl)benzyl)sulfinyl)-5-chloroquinolin-4(1H)-one]	> 2000 nM	> 2000 nM	> 10000 nM	> 2000 nM	> 2000 nM	> 2000 nM	> 2000 nM	> 2000 nM	> 2000 nM	1370 nM	> 2000 nM	> 2000 nM	> 2000 nM	> 10000 nM	> 2000 nM	1720 nM	> 2000 nM		> 2000 nM
CC(=O)c1c([S+]([O-])Cc2ccc(C(F)(F)F)cc2)[nH]c2c(Br)ccc(Cl)c2c1=O (centres unmarked) [Compound 70, 3-acetyl-8-bromo-5-chloro-2-((4-(trifluoromethyl)benzyl)sulfinyl)quinolin-4(1H)-one]	> 2000 nM	> 2000 nM	> 10000 nM	> 2000 nM	> 2000 nM	1440 nM	> 2000 nM	1990 nM	> 2000 nM	1030 nM	1610 nM	> 2000 nM	1470 nM	> 10000 nM	1730 nM	1690 nM	1940 nM		1010 nM
